Test results: patent US9402875B2, “Amidated dopamine neuron stimulating peptide restoration of mitochondrial activity” (University of Kentucky Research Foundation, priority 2006, dated 2016)
Entries after “also recorded” stand apart in the source; their conditions may differ. Ends that are not written are not given here.

Assays:
[1] = system: mitochondrial-associated genes in the substantia nigra; assay: Gene array analysis (Affymetrix) of substantia nigra after DNSP-11; assay type: in vivo, rat; settings: 48 h after bilateral 30 μg
Description: Changes in expression of mitochondrial-associated genes in the substantia nigra (SN) of three young adult (5 month old) male F344 rats 48 hours following bilateral intranigral injections of DNSP-11 into the substantial nigra was assessed as follows.
A 3 μg/μl DNSP-11 peptide solution was prepared in citrate buffer and filter sterilized. Stereotaxic injections were made of 30 μg DNSP-11 in 10 ul citrate buffer into the substantia nigra on each side of the brain. Controls received […] injections of vehicle. Forty-eight hours later, the animals were euthanized, the brains quickly recovered and sectioned so that the bilateral SN could be dissected out as one block of tissue and snap frozen in liquid nitrogen. RNA was extracted from the SN samples for gene array analysis, which was conducted on Affymetrix Version II chips. A gene chip was run for each of the six rats: three bilateral vehicle recipients, three bilateral 30 μg DNSP-11 recipients.

B65 cells = assay: JC-1 mitochondrial membrane potential assay; assay type: cell-based
Description: (§1) MN9D cells and B65 cells were cultured in Dulbecco's Modified Eagle's Medium (DMEM; 11995 (containing pyridoxol HCl); Sigma, St. Louis, Mo.) supplemented with 10% fetal bovine serum (HyClone, Logan, Utah), 50 U/mL penicillin and streptomycin. For each assay the cells were treated with mitochondrial-specific environmental toxins, i.e., MPP+, rotenone, and/or TaClo, and with or without DNSP-11. After incubation with the toxins, the cells were plated on 24-well poly-D-lysine plates (50,000 cells/well) for TUNEL assay (as described below) or 100,000 cell/well for caspase-3 assay in DMEM medium with 1% (v/v) penicillin-streptomycin only (as described below).
MN9D and B65 cells were treated with either 50 nM, 100 nM, 250 nM, 500 nM, 2.5 μM or 5 μM rotenone, 50 nM, 100 nM, 250 nM 1-methyl-4-phenylpyridinium (MPP+), or 10 μM , 25 μM, 50 μM, 100 μM, 150 μM or […]-1,2,3,4-tetrahydro-β-carboline (TaClo), for 1 to 12 hours and then incubated at 37° C. in 5% CO2 following pretreatment (1 to 30 minutes) with or without 100 nM or 10 nM DNSP-11. After treatment with rotenone, MPP+ or TaClo and incubation with DNSP-11, the cells were incubated for 30 minutes at 37° C. in a 5% CO2 incubator in the presence of 10 μM of the green fluorescent JC-1 (5,5′, 6,6′-tetrachloro-1,1′,3,3′-tetraethylbenzimidazolyl-cabo-cyanine iodine, T-3168 (Invitrogen)) and then washed in Locke's solution. Optical measurements were acquired with excitation at 485 nm and emission at 527 nm, and 590 nm. The levels of fluorescence at each emission wavelengths were quantified and ratio of measurements was assessed. The pertinent data are given as mean±S.E.M. for mean optical measurements. The values are expressed as percent of the mean control values ±S.E.M. and analyzed using ANOVA.

MN9D cells [2] = assay: TUNEL staining, mitochondrial toxins; assay type: cell-based
Description: as §1
Terminal deoxynucleotidyl transferase mediated X-dUTP nicked end DNA labeling of cells (TUNEL staining) was used to assess cells undergoing apoptosis. […] The biotinylated nucleotides are detected by using streptavidin-horseradish peroxidase conjugate followed by the substrate, diaminobenzidine (DAB). […] Cell were counted with 20× magnification (4 random fields/well), 4 wells per group. Ratio between apoptotic cells and total cells was calculated. […]

MN9D cells [3] = assay: Oxygen consumption rate (Seahorse XF-24); assay type: cell-based
Description: Real-time measurement of oxygen consumption rate (OCR) of intact DNSP-11-treated MN9D cells, in the presence and absence of Complex I toxins, rotenone 1-5 ηM or TaClo 100-150 μM, were performed utilizing the Seahorse XF-24 extracellular flux analyzer. This instrument allows the simultaneous measurement of the mitochondrial bioenergetics from […] cell culture samples, without the mitochondrial isolation (and thus higher quantities of sample) needed for the standard (lower throughput) Clark-type electrode chamber. Details regarding the methods used for the Seahorse analysis were recently described in detail (Sauerbeck et al., Journal of Neuroscience Methods 198:36-43 (2011) incorporated herein by reference).
Briefly, following sensor preparation, calibration, and dose optimization, the basal and maximal oxygen consumption rates (OCR) were measured in intact MN9D neuronal cells in the absence and presence of 1 μM DNSP-11. […] Following electron transport chain uncoupling by 100 nM FCCP to measure the maximal OCR, treatment of MN9D neurons with DNSP-11 had nearly a 60% increase (p<0.001) versus control.

[4] = MPP+, rotenone or TaClo 1 to 12 hours, pretreatment with 10 nM or 100 nM DNSP-11

PPEAPAEDRSL-NH2 [DNSP-11, PPEAPAEDRSL-amide]
APP FOLD CHANGE ([1]; vs control): −1.08
BACEI FOLD CHANGE ([1]; vs control): −1.09
CASP3 FOLD CHANGE ([1]; vs control): 1.18
CASP8 FOLD CHANGE ([1]; vs control): 1.25
CAT FOLD CHANGE ([1]; vs control): 1.09
COX6A2 FOLD CHANGE ([1]; vs control): 1.75
COX6B1 FOLD CHANGE ([1]; vs control): 1.04
COX17 FOLD CHANGE ([1]; vs control): 1.11
GLRX2 FOLD CHANGE ([1]; vs control): 1.09
GPX7 FOLD CHANGE ([1]; vs control): 1.19
MAOB FOLD CHANGE ([1]; vs control): 1.13
MAP2K4 FOLD CHANGE ([1]; vs control): −1.12
MAPK9 FOLD CHANGE ([1]; vs control): −1.21
MAPK10 FOLD CHANGE ([1]; vs control): −1.08
NDUFA7 FOLD CHANGE ([1]; vs control): 1.07
PARK7 FOLD CHANGE ([1]; vs control): 1.02
PRDX5 FOLD CHANGE ([1]; vs control): 1.13
PSEN1 FOLD CHANGE ([1]; vs control): 1.16
TXN2 FOLD CHANGE ([1]; vs control): 1.10
CAT catalase expression level, PEPTIDE ([1]; P 0.015): 2828.2
CASP8 caspase 8 expression level, PEPTIDE ([1]; control 178.1, P 0.006): 219.4
GPX7 glutathione peroxidase 7 expression level, PEPTIDE ([1]; control 183.8, P 0.015): 194.2
CASP3 caspase 3 expression level, PEPTIDE ([1]; control 367.5, P 0.024): 421.4
BACEI beta-site APP-cleaving enzyme 1 expression level, PEPTIDE ([1]; control 510.6, P 0.016): 451.6
COX6A2 cytochrome c oxidase subunit Via polypeptide2 expression level, PEPTIDE ([1]; control 520.6, P 0.014): 814.1
MAPK10 mitogen-activated protein kinase 10 expression level, PEPTIDE ([1]; control 552.8, P 0.008): 505.0
PSEN1 presenilin 1 expression level, PEPTIDE ([1]; control 563.2, P 0.022): 673.5
MAPK9 mitogen-activated protein kinase 9 expression level, PEPTIDE ([1]; control 930.0, P 0.007): 770.7
TXN2 thioredoxin 2 expression level, PEPTIDE ([1]; control 1378.5, P 0.010): 1511.9
MAOB monoamine oxidase B expression level, PEPTIDE ([1]; control 1974.2, P 0.012): 2199.8
COX17 cytochrome c oxidase assembly homolog expression level, PEPTIDE ([1]; control 2017.8, P 0.025): 2326.1
MAP2K4 mitogen-activated protein kinase kinase 4 expression level, PEPTIDE ([1]; control 2744.4, P 0.043): 2422.4
NDUFA7 NADH dehydrogenase (ubiquinone) 1 alpha subcomplex, 7 expression level, PEPTIDE ([1]; control 2943.0, P 0.046): 3125.4
GLRX2 glutaredoxin 2 expression level, PEPTIDE ([1]; control 3472.2, P <0.001): 3618.7
PRDX5 peroxiredoxin 5 expression level, PEPTIDE ([1]; control 4790.1, P 0.020): 5569.8
PARK7 DJ-1 expression level, PEPTIDE ([1]; control 5159.4, P 0.032): 5299.2
COX6B1 cytochrome c oxidase subunit Vib polypeptide 1 expression level, PEPTIDE ([1]; control 7536.6, P 0.044): 7869.7
APP amyloid beta (A4) precursor protein expression level, PEPTIDE ([1]; control 10117.2, P 0.006): 9734.4
mitochondrial potential, protection from toxins (B65 cells; [4]): protects the cells; also recorded: significant protection
mitochondrial potential, DNSP-11 alone (B65 cells; no toxin): no significant effect
TUNEL staining, protection from toxins (MN9D cells [2]; [4]): significant protection
TUNEL staining, DNSP-11 alone (MN9D cells [2]; no toxin): no significant effect
basal and maximal OCRs, protection from rotenone (MN9D cells [3]; 1 nM, 2.5 nM and 5 nM rotenone): protection
basal OCR vs control treatment (MN9D cells [3]; 1 μM DNSP-11): no significant effect
reserve respiratory capacity (ratio maximal/basal OCR) (MN9D cells [3]; 1 μM DNSP-11): significantly increases
maximal OCR, increase versus control (MN9D cells [3]; 1 μM DNSP-11, uncoupling by 100 nM FCCP, p<0.001): ~60%
basal and maximal OCRs, protection from TaClo (MN9D cells [3]; 100 μM and 150 μM TaClo): protection
